From patent US20070224321A1, “Baked Goods Comprising High-Potency Sweetener” (THE COCA-COLA COMPANY, priority 2005, published 2007)

Assay type: physicochemical
Method: A solution of rebaudioside A (>97% pure by HPLC ) was prepared in double distilled water (12.5 gm in 50 mL, 25% concentration) by stirring the mixture at 40° C. for 5 minutes. An amorphous form of_rebaudioside A was formed by immediately using the clear solution for spray drying with the Lab-Plant spray drier SD-04 instrument (Lab-Plant Ltd., West Yorkshire, U.K.). The solution was fed through the feed pump into the nozzle atomizer which atomized it into a spray of droplets with the help of a constant flow of nitrogen/air. […] This dry powder (11-12 g, H2O 6.74%) was discharged continuously from the drying chamber and was collected in a bottle.

- solubility in water at room temperature: > 35.0%
Substance: rebaudioside A [Form 4]
